Source: US20030187007A1, “Inhibitors of protein kinase for the treatment of disease” (priority 2001, published 2003)

Assays:
[1] = system: different cancer cell lines; assay: In vitro tumor cell efficacy test (SRB), mean over all cell lines; type: cell-based; details: Mean over all cell lines of the table
[2] = system: NCI-H522; type: cell-based; details: Homo sapiens; NCI-H522, Non-Small Cell Lung Cancer, 72 hours
[3] = system: BT-549; assay: In vitro tumor cell efficacy test (SRB), Breast Cancer; type: cell-based; details: Homo sapiens; BT-549, Breast Cancer, 72 hours
[4] = system: SK-MEL-5; assay: In vitro tumor cell efficacy test (SRB), Melonoma; type: cell-based; details: Homo sapiens, SK-MEL-5, Melonoma, 72 hours
[5] = system: UACC-257; assay: In vitro tumor cell efficacy test (SRB), Melonoma; type: cell-based; details: Homo sapiens, UACC-257, Melonoma, 72 hours
[6] = system: K-562; assay: In vitro tumor cell efficacy test (SRB), Leukemia; type: cell-based; details: Homo sapiens, K562, K-562, Leukemia, 72 hours
[7] = system: CCRF-CEM; assay: In vitro tumor cell efficacy test (SRB), Leukemia; type: cell-based; details: Homo sapiens, 72 hours
[8] = system: CAKI-1; assay: In vitro tumor cell efficacy test (SRB), Renal Cancer; type: cell-based; details: Homo sapiens, CAKI-1, Renal Cancer, 72 hours
[9] = system: LOX IMVI; assay: In vitro tumor cell efficacy test (SRB), Melonoma; type: cell-based; details: Homo sapiens, 72 hours
[10] = system: HCC-2998; assay: In vitro tumor cell efficacy test (SRB), Colon Cancer; type: cell-based; details: Homo sapiens, HCC-2998, Colon Cancer, 72 hours
[11] = system: KM12; assay: as above; type: cell-based; details: Homo sapiens, 72 hours
[12] = system: SW-620; assay: as above; type: cell-based; details: Homo sapiens, SW-620, Colon Cancer, 72 hours
[13] = system: OVCAR-8; assay: In vitro tumor cell efficacy test (SRB), Ovarian Cancer; type: cell-based; details: Homo sapiens, OVCAR-8, Ovarian Cancer, 72 hours
[14] = system: HOP-92; type: cell-based; details: Homo sapiens, HOP-92, Non-Small Cell Lung Cancer, 72 hours
[15] = system: OVCAR-5; assay: In vitro tumor cell efficacy test (SRB), Ovarian Cancer; type: cell-based; details: Homo sapiens; OVCAR-5, Ovarian Cancer, 72 hours
[16] = system: HT29; assay: In vitro tumor cell efficacy test (SRB), Colon Cancer; type: cell-based; details: Homo sapiens, HT-29, 72 hours
[17] = system: COLO 205; assay: as above; type: cell-based; details: Homo sapiens, COLO 205, Colon Cancer, 72 hours
[18] = system: M14; assay: In vitro tumor cell efficacy test (SRB), Melonoma; type: cell-based; details: Homo sapiens, 72 hours
[19] = system: RPMI-8226; assay: In vitro tumor cell efficacy test (SRB), Leukemia; type: cell-based; details: Homo sapiens, RPMI-8226, Leukemia, 72 hours
[20] = system: TK-10; assay: In vitro tumor cell efficacy test (SRB), Renal Cancer; type: cell-based; details: Homo sapiens; TK-10, Renal Cancer, 72 hours
[21] = system: PC-3; assay: In vitro tumor cell efficacy test (SRB), Prostate Cancer; type: cell-based; details: Homo sapiens, PC-3, Prostate Cancer, 72 hours
[22] = system: SK-MEL-28; assay: In vitro tumor cell efficacy test (SRB), Melonoma; type: cell-based; details: Homo sapiens, SK-MEL-28, Melonoma, 72 hours
[23] = system: MDA-MB-231/ATCC; assay: In vitro tumor cell efficacy test (SRB), Breast Cancer; type: cell-based; details: Homo sapiens, 72 hours
[24] = system: panel of protein kinases; assay: Specificity studies, overall statement; type: biochemical
Experimental: The assays of kinases were determined by monitoring the phosphorylation of appropriate substrates. The assay mixture contained 0.1 mM cold ATP ^33P-γ-ATP (2000-4000 cpm/μL), 0.1 mM substrate, 1 mM DTT, and 10 mM MgCl2 in 100 mM HEPES buffer pH 7.4. The assay mixture, along with inhibitor and kinase enzyme (0.3-0.4 U/mL), was mixed together in a microtiter 96-well plate in a final volume of 40 μL, sealed and incbated for 1 hour at 30° C. Following incubation, a 15 μL aliquot was added to a Whatman P81 filtration plate containing 100 μL 0.5% phosphoric acid. This mixture was allowed to stand for 5 minutes prior to filtration on a vacuum manifold. The filter plate was washed with 5 successive additions of 300 μL 0.5% phosporic acid. The filtration plate was air dried for 10 minutes before sealing the bottom. After addition of scintillation fluid to the sealed plate, phosphorylated substrate was quantified in a scintillation counter.

[25] = system: A498; assay: In vitro tumor cell efficacy test (SRB), Renal Cancer; type: cell-based; details: Homo sapiens, 72 hours
[26] = system: EKVX; type: cell-based; details: Homo sapiens, Non-Small Cell Lung Cancer, 72 hours
[27] = system: MDA-N; assay: In vitro tumor cell efficacy test (SRB), Breast Cancer; type: cell-based; details: Homo sapiens, 72 hours
[28] = read-out: Log (LC50) (the source's name) (converted)

**Q.** Which results are given for `Nc1nccc(-c2cc(-c3ccc(O)cc3)ccc2O)n1` [3-(2-Amino-pyrimidin-4-yl)-biphenyl-4,4′-diol]?
**A.** CC50 ([1]; read-out: Log (LC50) (M), Mean (converted)): > 0.0001 M; GI50 ([1]; read-out: log (GI50) (M), Mean (converted)): 3.16e-07 M; GI50 [2]: 200 nM; LC50 [2]: > 100000 nM; GI50 [3]: 251 nM; LC50 [3]: > 100000 nM; GI50 [4]: 100 nM; CC50 [4, 28]: 20000 nM; GI50 [5]: 1260 nM; CC50 [5, 28]: > 100000 nM; GI50 [6]: 398 nM; CC50 [6, 28]: > 100000 nM; GI50 [7]: 200 nM; CC50 [7, 28]: 79400 nM; GI50 [8]: 398 nM; CC50 [8, 28]: > 100000 nM; GI50 [9]: 200 nM; CC50 [9, 28]: > 100000 nM; GI50 [10]: 1260 nM; CC50 [10, 28]: > 100000 nM; GI50 [11]: 126 nM; CC50 [11, 28]: > 100000 nM; GI50 [12]: 316 nM; CC50 [12, 28]: > 100000 nM; GI50 [13]: 200 nM; CC50 [13, 28]: > 100000 nM; GI50 [14]: 398 nM; CC50 [14, 28]: > 100000 nM; GI50 [15]: 2000 nM; LC50 (50% lethal concentration) [15]: > 100000 nM; GI50 [16]: 3160 nM; CC50 [16, 28]: > 100000 nM; GI50 [17]: 7940 nM; CC50 [17, 28]: > 100000 nM; GI50 [18]: 398 nM; CC50 [18, 28]: > 100000 nM; GI50 [19]: 200 nM; CC50 [19, 28]: > 100000 nM; GI50 [20]: 2000 nM; LC50 [20]: > 100000 nM; GI50 [21]: 251 nM; CC50 [21, 28]: > 100000 nM; GI50 [22]: 251 nM; CC50 [22, 28]: > 100000 nM; GI50 [23]: 251 nM; CC50 [23, 28]: > 100000 nM; specificity ([24]; CDK5 and CDK2 versus a panel of protein kinases): highly specific for CDK5 and CDK2; inhibition against a panel of protein kinases ([24]; panel of protein kinases): little inhibition; GI50 [25]: 1580 nM; CC50 [25, 28]: > 100000 nM; GI50 [26]: 251 nM; CC50 [26, 28]: > 100000 nM; GI50 [27]: 251 nM; CC50 [27, 28]: > 100000 nM
